Data from ChEMBL document CHEMBL6134853, “Design, Synthesis, and Biological Evaluation of Pyrrolo[1,2-a]quinoxalin-4(5H)-one Derivatives as Potent and Orally Available Noncovalent Bruton's Tyrosine Kinase (BTK) Inhibitors” (J Med Chem, 2025).
pIC50: −log10 of the molar value. In brackets after ≈: the same amount, converted by molar mass.

Assays:
[1] = Aqueous solubility of compound in PBS buffer at pH 7.4 by HPLC analysis; type: physicochemical
[2] = test system: U-937; test: Antiproliferative activity against human U-937 cells expressing BTK assessed as inhibition of cell proliferation incubated for 48 hrs by CCK-8 assay; type: functional, cell-based; details: U-937, 48 h
[3] = test system: Ramos; test: Antiproliferative activity against human Ramos cells expressing BTK assessed as inhibition of cell proliferation incubated for 48 hrs by CCK-8 assay; type: functional, cell-based
[4] = target: Tyrosine-protein kinase BTK (Homo sapiens, UniProt Q06187); test: Inhibition of BTK (unknown origin) by HTRF analysis
Chain of Tyrosine-protein kinase BTK (Q06187 whole entry): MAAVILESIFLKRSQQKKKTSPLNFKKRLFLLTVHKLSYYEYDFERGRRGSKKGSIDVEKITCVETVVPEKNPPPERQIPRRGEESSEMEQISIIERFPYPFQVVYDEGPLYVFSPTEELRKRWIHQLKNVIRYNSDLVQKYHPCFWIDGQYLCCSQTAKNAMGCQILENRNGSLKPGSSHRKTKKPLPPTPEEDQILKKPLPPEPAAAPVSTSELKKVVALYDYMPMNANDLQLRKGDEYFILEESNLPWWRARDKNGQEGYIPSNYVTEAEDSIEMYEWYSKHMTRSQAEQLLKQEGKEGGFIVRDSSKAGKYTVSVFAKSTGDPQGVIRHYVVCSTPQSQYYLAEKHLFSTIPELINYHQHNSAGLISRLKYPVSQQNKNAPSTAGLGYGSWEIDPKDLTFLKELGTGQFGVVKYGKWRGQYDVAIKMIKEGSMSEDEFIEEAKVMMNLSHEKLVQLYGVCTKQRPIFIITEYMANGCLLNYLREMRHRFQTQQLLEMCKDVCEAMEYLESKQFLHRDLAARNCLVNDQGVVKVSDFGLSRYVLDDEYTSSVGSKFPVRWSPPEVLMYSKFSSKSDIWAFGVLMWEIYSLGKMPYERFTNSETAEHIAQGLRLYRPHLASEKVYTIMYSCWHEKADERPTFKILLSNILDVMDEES

[5] = Tmax in male Sprague-Dawley rat at 10 mg/kg, po measured up to 5 hrs by LC-MS/MS analysis; type: ADME, organism-based; details: in vivo
[6] = Cmax in male Sprague-Dawley rat at 10 mg/kg, po measured up to 5 hrs by LC-MS/MS analysis; type: ADME, organism-based; details: in vivo
[7] = AUC (0 to 5 hrs) in male Sprague-Dawley rat at 10 mg/kg, po measured up to 5 hrs by LC-MS/MS analysis; type: ADME, organism-based; details: in vivo
[8] = MRT (0 to 5 hrs) in male Sprague-Dawley rat at 10 mg/kg, po measured up to 5 hrs by LC-MS/MS analysis; type: ADME, organism-based; details: in vivo
[9] = test system: U-937; test: Antitumor activity against human U-937 cells xenografted in BALB/c mouse assessed as tumor growth inhibition at 50 mg/kg, po administered once a day for 14 days; type: functional; details: U-937, 336 h, time 14 day, read-out: TGI
[10] = AUC (0 to t) in male Sprague-Dawley rat at 10 mg/kg, po measured up to 24 hrs by LC-MS/MS analysis; type: ADME, organism-based; details: in vivo
[11] = Metabolic stability in rat liver microsome measured for 60 mins by UHPL-UV-HRMS analysis; type: ADME; details: microsomes, 1 h

Row | SMILES | pIC50 [2] | pIC50 [3] | pIC50 [4] | other results
1 | CC(C)(O)c1ccc2c(c1)[nH]c(=O)c1ccc(-c3cccc(-n4c(=O)[nH]c5c(F)cccc5c4=O)c3CO)n12 | < 4.40 | < 4.40 | 7.82 | solubility [1]: 8.4 µg/mL (≈ 16 µM)
2 | Cc1c(-c2c(F)cc(C(N)=O)c3[nH]c4c(c23)CC[C@H](C(C)(C)O)C4)cccc1-n1c(=O)c2cccc(F)c2n(C)c1=O [BMS-986142] | 5.03 | 4.87 | 9.38 | 
3 | Cc1c(-c2ccc3c(=O)[nH]c4cc(C(F)F)ccc4n23)cccc1-n1c(=O)[nH]c2c(F)cccc2c1=O |  |  | 7.27 | 
4 | Cc1c(-c2cc(CO)c3c(=O)[nH]c4cc(C(C)(C)O)ccc4n23)cccc1-n1c(=O)[nH]c2c(F)cccc2c1=O |  |  | 6.49 | solubility [1]: 5.5 µg/mL (≈ 10.2 µM)
5 | Cc1c(-c2ccc3c(=O)[nH]c4cc(C(C)(C)O)ccc4n23)cc(F)cc1-n1c(=O)[nH]c2c(F)cccc2c1=O | 4.92 | 4.63 | 7.76 | 
6 | Cc1cc2c(=O)[nH]c3cc(C(C)(C)O)ccc3n2c1-c1cccc(-n2c(=O)[nH]c3c(F)cccc3c2=O)c1C | 5.22 | 4.82 | 7.96 | Tmax [5]: 1 h; Cmax [6]: 5.16 ng/mL; AUC(0-t) at 5 h [7]: 8.45 ng·h/mL; MRT last at 5 h [8]: 1.17 h
7 | Cc1c(NC(=O)c2cccc(F)c2N)cccc1-c1ccc2c(=O)[nH]c3cc(C(C)(C)O)ccc3n12 |  |  | 7.31 | 
8 | C=CC(=O)N1CCC[C@@H](n2nc(-c3ccc(Oc4ccccc4)cc3)c3c(N)ncnc32)C1 [IBRUTINIB] | 5.43 | 4.82 |  | inhibition in vivo at 50 mg/kg [9]: 41.1%
9 | Cc1c(-c2ccc3c(=O)[nH]c4cc(C(C)(C)O)ccc4n23)cccc1-n1c(=O)[nH]c2c(F)cc(F)cc2c1=O | < 4.40 | 4.45 | 8.14 | 
10 | Cc1c(-c2ccc3c(=O)[nH]c4cc(C(C)(C)O)ccc4n23)cccc1N1CNc2c(F)cccc2C1=O | 4.80 | 4.77 | 7.74 | 
11 | Cc1c(-c2c(C#N)cc3c(=O)[nH]c4cc(C(C)(C)O)ccc4n23)cccc1-n1c(=O)[nH]c2c(F)cccc2c1=O |  |  | < 6.00 | 
12 | Cc1c(-c2ccc3c(=O)[nH]c4cc(C(C)(C)O)ccc4n23)cccc1N1CC(=O)Nc2c(F)cccc2C1=O |  |  | 7.43 | solubility [1]: 6.3 µg/mL (≈ 12 µM)
13 | Cc1c(-c2ccc(C(N)=O)n2-c2ccc(C(C)(C)O)cc2)cccc1-n1c(=O)[nH]c2c(F)cccc2c1=O |  |  | < 6.00 | solubility [1]: 30.6 µg/mL (≈ 59.7 µM)
14 | Cc1c(-c2ccc3c(=O)[nH]c4cc(C(C)(C)O)ccc4n23)cccc1-n1c(=O)[nH]c2c(F)cccc2c1=O | 4.94 | 4.70 | 8.08 | Tmax [5]: 1 h; AUC(0-t) at 24 h [10]: 51.9 ng·h/mL; Cmax [6]: 14.2 ng/mL; AUC(0-t) at 5 h [7]: 39.7 ng·h/mL; solubility [1]: 1.1 µg/mL (≈ 2.15 µM); MRT last at 5 h [8]: 1.02 h; Stability [11]: Stable; inhibition in vivo at 50 mg/kg [9]: 28.7%
15 | Cc1c(-c2ccc3c(=O)[nH]c4cc(C(F)(F)F)ccc4n23)cccc1-n1c(=O)[nH]c2c(F)cccc2c1=O |  |  | 7.22 | 
16 | Cc1c(-c2ccc3c(=O)[nH]c4cc(C(C)(C)O)ccc4n23)cccc1-n1c(=O)oc2c(F)cccc2c1=O |  |  | 7.27 | 
17 | Cc1c(-c2c(F)cc3c(=O)[nH]c4cc(C(C)(C)O)ccc4n23)cccc1-n1c(=O)[nH]c2c(F)cccc2c1=O | < 4.40 | < 4.40 | 8.24 | 
18 | CC(C)(O)c1ccc2c(c1)[nH]c(=O)c1ccc(-c3cccc(-n4c(=O)[nH]c5c(F)cccc5c4=O)c3C(F)F)n12 | 4.90 | < 4.40 | 7.97 | 
19 | CC(C)(O)c1ccc2c(c1)[nH]c(=O)c1ccc(-c3cccc(-n4c(=O)[nH]c5c(F)cccc5c4=O)c3)n12 |  |  | 7.13 | 
20 | Cc1c(-c2ccc3c(=O)[nH]c4cc(C(C)(C)O)ccc4n23)cccc1-n1c(=O)[nH]c2cc(C3CC3)ccc2c1=O | 4.86 | 5.06 | 7.77 | 
21 | Cc1c(-c2ccc3n2Cc2ccc(C(C)(C)O)cc2NC3=O)cccc1-n1c(=O)[nH]c2c(F)cccc2c1=O |  |  | < 6.00 | solubility [1]: < 0.5 µg/mL
22 | Cc1c(-c2ccc3c(=O)[nH]c4cc(C(C)(C)O)ccc4n23)cccc1-n1c(=O)[nH]c2cccc(F)c2c1=O | 5.21 | 4.75 | 7.92 | 
23 | Cc1c(-c2ccc3c(=O)[nH]c4cc(C(C)(C)O)ccc4n23)cccc1N1C(=O)c2cccc(F)c2C1=O | < 4.40 | < 4.40 | 7.66 | 
24 | Cc1c(-c2ccc3c(=O)[nH]c(-c4ccc(C(C)(C)O)cc4)cn23)cccc1-n1c(=O)[nH]c2c(F)cccc2c1=O |  |  | 7.19 | solubility [1]: < 0.5 µg/mL
25 | Cc1c(-c2ccc3c(=O)[nH]c4cc(CN5CCOCC5)ccc4n23)cccc1-n1c(=O)[nH]c2c(F)cccc2c1=O |  |  | 7.48 | 
26 | [2H]C([2H])([2H])C(O)(c1ccc2c(c1)[nH]c(=O)c1ccc(-c3cccc(-n4c(=O)[nH]c5c(F)cccc5c4=O)c3C)n12)C([2H])([2H])[2H] | 4.88 | 4.72 | 7.91 | Tmax [5]: 0.5 h; Cmax [6]: 10.4 ng/mL; AUC(0-t) at 5 h [7]: 31.1 ng·h/mL; MRT last at 5 h [8]: 2.05 h
